Source: US4567270A, “Hexahydroindolizinones useful for treating cardiac arrhythmia, thrombotic disorders in mammals” (G. D. Searle & Co., priority 1984, dated 1986)
pIC50: −log10 of the molar value. Counter-ions that a name gives are not always drawn. Like-named read-outs stand apart in the source and are kept apart here.

Experiments:
[1] = system: ADP-induced aggregation of blood platelets; test: Inhibition of ADP-induced platelet aggregation (optical platelet aggregometry in platelet-rich plasma); format: cell-based; settings: rat platelet-rich plasma; one minute incubation, ADP usually 1-3 mcM
[2] = system: ventricular arrhythmia induced by coronary artery ligation; test: Inhibition of ventricular arrhythmia induced by coronary ligation (two-stage ligation of left coronary artery); format: in vivo, dog; settings: for minimal effective dose: Canis lupus familiaris, iv, read-out: Minimum Effective Dose
Protocol: Arrhythmias induced in this manner are considered similar in nature to those resulting from myocardial infarction in humans. […] The antiarrhythmic and antiaggregatory activities of the compounds of this invention illustrated in the examples were tested by the following methods.
Ventricular arrhythmia was induced by a two-stage ligation of the anterior descending branch of the left coronary artery in each of two or more dogs. Compounds were administered intraveneously using an initial 5 mg/kg body weight dose, with additional doses injected at intervals to a maximum of 20 mg/kg. A compound was rated active if it produced at least a 25% reduction in ectopic beats for a period of at least ten minutes in half or more of the dogs. The average minimum effective dose for each compound was calculated.
Compounds which produced 75-100% reduction in the ventricular arrhythmia at the initial 5 mg/kg dose were further tested using 1 mg/kg doses injected as before at five minute intervals. As before, a compound was rated active if it produced at least a 25% reduction in ectopic beats for a period of at least ten minutes in half or more of the dogs. The average minimum effective dose for each compound was calculated.

[3] = system: ventricular arrhythmia induced by coronary artery ligation; settings: dog; cited from earlier work
[4] = system: cardiac arrhythmia; settings: cited from earlier work
[5] = cited from earlier work; for toxic / side effects: Goodman and Gilman
[6] = dog, i.v., coronary ligation, average minimum dose giving at least 25% reduction in ectopic beats for at least ten minutes in half or more of the dogs

| SMILES | pIC50 [1] | minimal effective dose [2, 6] | activity of known antiarrhythmics under coronary ligation conditions [3] | activity in man [4] | toxic / side effects [5] | other results |
| --- | --- | --- | --- | --- | --- | --- |
| CC(C)N(CCC1(c2ccccc2)CC2CCCCN2C1=O)C(C)C (stereo not drawn) [Example 11, 2-[2-[bis(1-methylethyl)amino]ethyl]hexahydro-2-phenyl-3(2H)-indolizinone hydrochloride hydrate] | 4.09 |  |  |  |  |  |
| CC(C)N(CCC1(c2ccccc2)CC2CCCCN2C1=O)C(C)C (stereo not drawn) [Example 3, 2-[2-[bis(1-methylethyl)amino]ethyl]-hexahydro-2-phenyl-3(2H)-indolizinone] |  | 5 mg/kg |  |  |  |  |
| CC(C)N(CCC1(c2ccccc2Cl)CC2CCCCN2C1=O)C(C)C (racemic) [Example 6, 2-[2-[bis(1-methylethyl)amino]ethyl]-2-(2-chlorophenyl)hexahydro-3(2H)-indolizinone, Racemate A] | 4.06 | 3 mg/kg |  |  |  |  |
| CC(C)N(CCC(C(N)=O)(c1ccccc1)c1ccccn1)C(C)C (stereo not drawn) [Disopyramide] |  |  | active under these conditions | active in man | anticholinergic effects | minimal effective dose [2]: 9.2 mg/kg; Human dose (i.v.) ([4]; human, i.v., comment in Table 1): ca. 2 mpk; effective refractory period of the atrium ([5]; at therapeutic levels): lengthens the effective refractory period of the atrium; refractory period of the A-V node ([5]; at therapeutic levels): minimal effect on the refractory period of the A-V node; sinus node recovery time ([5]; at therapeutic levels): shortens the sinus node recovery time |
| CC(C)N(CCC1(c2ccc(-c3ccccc3)cc2)CC2CCCCN2C1=O)C(C)C (stereo not drawn) [Example 10, 2-[2-[bis(1-methylethyl)amino]ethyl]-2-(4-phenylphenyl)hexahydro-3(2H)-indolizinone] | 4.47 | 3 mg/kg |  |  |  |  |
| C=C[C@H]1C[N@@]2CC[C@H]1C[C@@H]2[C@@H](O)c1ccnc2ccc(OC)cc12 [Quinidine] |  |  | active under these conditions | active in man | exhibits several toxic reactions, such as cinchonism |  |
| CCN(CC)CCNC(=O)c1ccc(N)cc1 [Procainamide] |  |  | active under these conditions | active in man |  |  |
| CC(C)NCC(O)COc1cccc2ccccc12 (stereo not drawn) [Propranolol] |  |  |  |  | may induce significant hypotension, left ventricular failure, or even cardiovascular collapse |  |
| CC(C)N(CCC1(c2ccccc2Cl)CC2CCCCN2C1=O)C(C)C (racemic) [Example 7, 2-[2-[bis(1-methylethyl)-amino]ethyl]-2-(2-chlorophenyl)hexahydro-3(2H)-indolizinone, Racemate B] |  |  |  |  |  | Minimum Effective Dose ([2]; dog, i.v., coronary ligation, average minimum dose giving at least 25% reduction in ectopic beats for at least ten minutes in half or more of the dogs, listed as Ex. 7): 5.0 mpk |
